Measurements taken from ChEMBL document CHEMBL4828714, “Mutasynthesis of Antibacterial Halogenated Actinomycin Analogues” (J Nat Prod, 2021).
Converted amounts (≈) assume the structure as drawn. Numbered stars: 1 amine (or outer) side, 2 acyl side, 3 side chain; on linkers, the order of the positions; unused ones are H or OH. Bridge positions count the residues as written; N and C are the ends. Square brackets hold non-standard residues; d marks the D form. Peptide text beside a SMILES is read from it. I, II: the chains in the order shown. Actinocin(1to9) = Cc1c2oc3c(C)ccc(C(=O)[*:2])c3nc-2c(C(=O)[*:1])c(N)c1=O; NMeV = CN[C@H](C(=O)O)C(C)C; Sar = CNCC(=O)O

Experiments:
[1] = test system: RKO; assay: Cytotoxicity against human RKO cells assessed as growth inhibition incubated for 68 hrs by MTT assay; type: functional, cell-based
[2] = test system: Staphylococcus aureus; assay: Antimicrobial activity against Staphylococcus aureus Sau 718306 assessed as inhibition of bacterial growth incubated for 16 to 18 hrs by broth micro dilution technique; type: functional; conditions: time 16-18 hrs
[3] = test system: Staphylococcus aureus; assay: Antimicrobial activity against Staphylococcus aureus CCAM 3090 assessed as inhibition of bacterial growth incubated for 16 to 18 hrs by broth micro dilution technique; type: functional; conditions: time 16-18 hrs
[4] = test system: Micrococcus luteus; assay: Antimicrobial activity against Micrococcus luteus ML01 assessed as inhibition of bacterial growth incubated for 16 to 18 hrs by broth micro dilution technique; type: functional; conditions: time 16-18 hrs
[5] = test system: Candida albicans; assay: Antimicrobial activity against Candida albicans assessed as inhibition of bacterial growth incubated for 16 to 18 hrs by broth micro dilution technique; type: functional; conditions: time 16-18 hrs
[6] = test system: MCF7; assay: Cytotoxicity against human MCF7 cells assessed as growth inhibition incubated for 68 hrs by MTT assay; type: functional, cell-based; conditions: MCF7, 68 h
[7] = test system: Staphylococcus aureus; assay: Antimicrobial activity against Staphylococcus aureus Sau 16162 assessed as inhibition of bacterial growth incubated for 16 to 18 hrs by broth micro dilution technique; type: functional; conditions: time 16-18 hrs
[8] = test system: Staphylococcus aureus; assay: Antimicrobial activity against Staphylococcus aureus Sau 6917 assessed as inhibition of bacterial growth incubated for 16 to 18 hrs by broth micro dilution technique; type: functional; conditions: time 16-18 hrs
[9] = test system: Staphylococcus aureus; assay: Antimicrobial activity against Staphylococcus aureus Sau 991 assessed as inhibition of bacterial growth incubated for 16 to 18 hrs by broth micro dilution technique; type: functional; conditions: time 16-18 hrs
[10] = test system: Enterococcus faecalis; assay: Antimicrobial activity against Enterococcus faecalis ATCC 29212 assessed as inhibition of bacterial growth incubated for 16 to 18 hrs by broth micro dilution technique; type: functional; conditions: time 16-18 hrs
[11] = test system: A549; assay: Cytotoxicity against human A549 cells assessed as growth inhibition incubated for 68 hrs by MTT assay; type: functional, cell-based; conditions: A549, 68 h
[12] = test system: Enterococcus faecium; assay: Antimicrobial activity against Enterococcus faecium ATCC 35682 assessed as inhibition of bacterial growth incubated for 16 to 18 hrs by broth micro dilution technique; type: functional; conditions: time 16-18 hrs
[13] = test system: Staphylococcus aureus; assay: Antimicrobial activity against Staphylococcus aureus Sau 745524 assessed as inhibition of bacterial growth incubated for 16 to 18 hrs by broth micro dilution technique; type: functional; conditions: time 16-18 hrs
[14] = test system: Staphylococcus aureus; assay: Antimicrobial activity against Staphylococcus aureus ATCC 29213 assessed as inhibition of bacterial growth incubated for 16 to 18 hrs by broth micro dilution technique; type: functional; conditions: time 16-18 hrs
[15] = test system: Bacillus thuringiensis; assay: Antimicrobial activity against Bacillus thuringiensis BT01 assessed as inhibition of bacterial growth incubated for 16 to 18 hrs by broth micro dilution technique; type: functional; conditions: time 16-18 hrs
[16] = test system: HL-60; assay: Cytotoxicity against human HL-60 cells assessed as growth inhibition incubated for 68 hrs by MTT assay; type: functional, cell-based; conditions: HL-60, 68 h
[17] = test system: HeLa; assay: Cytotoxicity against human HeLa cells assessed as growth inhibition incubated for 68 hrs by MTT assay; type: functional, cell-based
[18] = test system: HepG2; assay: Cytotoxicity against human HepG2 cells assessed as growth inhibition incubated for 68 hrs by MTT assay; type: functional, cell-based; conditions: HepG2, 68 h
[19] = test system: L02; assay: Cytotoxicity against human L02 cells assessed as growth inhibition incubated for 68 hrs by MTT assay; type: cell-based; conditions: L02, 68 h
[20] = test system: BEAS-2B; assay: Cytotoxicity against human BEAS-2B cells assessed as growth inhibition incubated for 68 hrs by MTT assay; type: cell-based
[21] = test system: Staphylococcus aureus; assay: Antimicrobial activity against Staphylococcus aureus Sau 1862 assessed as inhibition of bacterial growth incubated for 16 to 18 hrs by broth micro dilution technique; type: functional; conditions: time 16-18 hrs

Structure (SMILES) | MIC [2] [µg/mL] | MIC [3] [µg/mL] | MIC [4] [µg/mL] | MIC [5] [µg/mL] | MIC [7] [µg/mL] | MIC [8] [µg/mL] | MIC [9] [µg/mL] | MIC [10] [µg/mL] | MIC [12] [µg/mL] | MIC [13] [µg/mL] | MIC [14] [µg/mL] | MIC [15] [µg/mL] | IC50 [1] [nM] | IC50 [6] [µM] | IC50 [11] [µM] | IC50 [16] [nM] | IC50 [17] [µM] | IC50 [18] [nM] | IC50 [19] [µM] | IC50 [20] [nM] | also measured
CC(C)[C@H]1C(=O)O[C@H](C)[C@H](NC(=O)c2c3nc4c(C(=O)N[C@@H]5C(=O)N[C@H](C(C)C)C(=O)N6CCC[C@H]6C(=O)N(C)CC(=O)N(C)[C@@H](C(C)C)C(=O)O[C@@H]5C)ccc(Cl)c4oc-3c(Cl)c(=O)c2N)C(=O)N[C@H](C(C)C)C(=O)N2CCC[C@H]2C(=O)N(C)CC(=O)N1C | 16 (≈ 12.3 µM) | 32 (≈ 24.7 µM) | 0.06 (≈ 0.0463 µM) | 16 (≈ 12.3 µM) | 16 (≈ 12.3 µM) | 32 (≈ 24.7 µM) | 16 (≈ 12.3 µM) | 16 (≈ 12.3 µM) | 0.13 (≈ 0.1 µM) | 16 (≈ 12.3 µM) | 32 (≈ 24.7 µM) | 0.5 (≈ 0.386 µM) | 11100 | 17.3 | 4.5 | 200 | 51 | 2800 | 4.6 | 1000 | MIC [21]: 16 µg/mL (≈ 12.3 µM)
COc1c2oc3c(OC)ccc(C(=O)N[C@@H]4C(=O)N[C@H](C(C)C)C(=O)N5CCC[C@H]5C(=O)N(C)CC(=O)N(C)[C@@H](C(C)C)C(=O)O[C@@H]4C)c3nc-2c(C(=O)N[C@@H]2C(=O)N[C@H](C(C)C)C(=O)N3CCC[C@H]3C(=O)N(C)CC(=O)N(C)[C@@H](C(C)C)C(=O)O[C@@H]2C)c(N)c1=O | 2 (≈ 1.55 µM) | 2 (≈ 1.55 µM) | 0.5 (≈ 0.388 µM) | 16 (≈ 12.4 µM) | 8 (≈ 6.21 µM) | 2 (≈ 1.55 µM) | 2 (≈ 1.55 µM) | 8 (≈ 6.21 µM) | 8 (≈ 6.21 µM) | 2 (≈ 1.55 µM) | 2 (≈ 1.55 µM) | 4 (≈ 3.11 µM) | 1700 | 4.1 | 18.5 | 200 | 4.3 | 4000 | 3.9 | 2700 | MIC [21]: 2 µg/mL (≈ 1.55 µM)
CN[C@H](CC(C)C)C(=O)N[C@H]1C(=O)N[C@@H](CC(N)=O)C(=O)N[C@H]2C(=O)N[C@H]3C(=O)N[C@H](C(=O)N[C@H](C(=O)O)c4cc(O)cc(O)c4-c4cc3ccc4O)[C@H](O)c3ccc(c(Cl)c3)Oc3cc2cc(c3O[C@@H]2O[C@H](CO)[C@@H](O)[C@H](O)[C@H]2O[C@H]2C[C@](C)(N)[C@H](O)[C@H](C)O2)Oc2ccc(cc2Cl)[C@H]1O [VANCOMYCIN] | – | 0.25 (≈ 0.173 µM) | 0.25 (≈ 0.173 µM) | 0.25 (≈ 0.173 µM) | 64 (≈ 44.2 µM) | – | – | 1 (≈ 0.69 µM) | > 64 | – | – | 4 (≈ 2.76 µM) | – | – | – | – | – | – | – | – | –

Continued, in another order:

MIC [2] [µg/mL] | MIC [3] [µg/mL] | MIC [4] [µg/mL] | MIC [5] [µg/mL] | MIC [7] [µg/mL] | MIC [8] [µg/mL] | MIC [9] [µg/mL] | MIC [10] [µg/mL] | MIC [12] [µg/mL] | MIC [13] [µg/mL] | MIC [14] [µg/mL] | MIC [15] [µg/mL] | Structure (SMILES) | IC50 [1] [nM] | IC50 [6] [µM] | IC50 [11] [µM] | IC50 [16] [nM] | IC50 [17] [µM] | IC50 [18] [nM] | IC50 [19] [µM] | IC50 [20] [nM] | also measured
32 (≈ 25.3 µM) | 32 (≈ 25.3 µM) | 2 (≈ 1.58 µM) | 64 (≈ 50.7 µM) | 32 (≈ 25.3 µM) | 32 (≈ 25.3 µM) | 32 (≈ 25.3 µM) | 64 (≈ 50.7 µM) | 4 (≈ 3.17 µM) | 32 (≈ 25.3 µM) | 32 (≈ 25.3 µM) | 16 (≈ 12.7 µM) | CC(C)[C@H]1C(=O)O[C@H](C)[C@H](NC(=O)c2c3nc4c(C(=O)N[C@@H]5C(=O)N[C@H](C(C)C)C(=O)N6CCC[C@H]6C(=O)N(C)CC(=O)N(C)[C@@H](C(C)C)C(=O)O[C@@H]5C)ccc(F)c4oc-3c(F)c(=O)c2N)C(=O)N[C@H](C(C)C)C(=O)N2CCC[C@H]2C(=O)N(C)CC(=O)N1C | > 50000 | 17.1 | > 50 | > 50000 | > 50 | > 50000 | > 50 | > 50000 | MIC [21]: 32 µg/mL (≈ 25.3 µM)
0.06 (≈ 0.0478 µM) | 0.06 (≈ 0.0478 µM) | < 0.06 | < 0.06 | 1 (≈ 0.797 µM) | 0.06 (≈ 0.0478 µM) | 0.06 (≈ 0.0478 µM) | < 0.06 | 0.13 (≈ 0.104 µM) | 0.06 (≈ 0.0478 µM) | 0.06 (≈ 0.0478 µM) | 0.06 (≈ 0.0478 µM) | Cc1c2oc3c(C)ccc(C(=O)N[C@@H]4C(=O)N[C@H](C(C)C)C(=O)N5CCC[C@H]5C(=O)N(C)CC(=O)N(C)[C@@H](C(C)C)C(=O)O[C@@H]4C)c3nc-2c(C(=O)N[C@@H]2C(=O)N[C@H](C(C)C)C(=O)N3CCC[C@H]3C(=O)N(C)CC(=O)N(C)[C@@H](C(C)C)C(=O)O[C@@H]2C)c(N)c1=O [DACTINOMYCIN] (I: T[dV]P[Sar][NMeV] / II: T[dV]P[Sar][NMeV]; ester I:1-I:C, II:1-II:C; linker I:N-II:N via Actinocin(1to9)) | 30 | 0.2 | 3.8 | 20 | 0.12 | 10 | 0.5 | 700 | MIC [21]: 0.06 µg/mL (≈ 0.0478 µM)
